# Data taken from patent US20250144138A1, “Chimeric Antigen Receptor Therapies and Vasoactive Intestinal Peptide Receptor Antagonists” (Emory University, priority 2021, published 2025).
# Test system: CAR T cells
# Assay: Proliferation of CAR T cells co-cultured with antigen-relevant target cells, treated with exogenous VIP and/or VIPR antagonist
# Assay type: cell-based
# Description: Experiments were performed to determine whether antigen-stimulation increases VPAC1+ CAR T cells and VIPR antagonism enhances CAR T cell proliferation in the presence of VIP. CAR T cells were co-cultured alone or with antigen-relevant or antigen-irrelevant […] for 24 hrs. VPAC1 and VPAC2 expression was evaluated via flow cytometry. […] CAR T cells co-cultured with antigen-relevant target cells were treated with exogenous VIP and/or VIPR antagonist. Proliferation of CAR T cells is suppressed by VIP and rescued by exogenous VIPR antagonist (FIGS. 2A-2C).
substance,measurement,value
vasoactive intestinal peptide [VIP],Proliferation of CAR T cells,suppressed
